Source: patent publication US10253032B2, “Spiro-lactam NMDA receptor modulators and uses thereof” (Aptinyx Inc., priority 2013, dated 2019)

Legend:
[1] = target: T1, NMDA receptor glycine site, rat cortical membranes (Rattus norvegicus, UniProt P35439); experiment: [3H] MK-801 binding assay (MK-801 Glycine Site Binding Assay: Rat, Cortex); conditions: potentiation of [3H]MK-801 binding (5 nM), 50 μM glutamate, 15 min @25° C.
T1 construct: well washed rat cortical membranes (200 μg); from tissue; host or cells: rat cerebral cortex membranes
Experimental: Assays were conducted as described in Moskal et al. (Moskal, J. R., Kuo, A. G., Weiss, C., Wood, P. L., O'Connor Hanson, A., Kelso, S., Harris, R. B., Disterhoft, S. F., 2005. GLYX-13: a monoclonal antibody-derived peptide that acts as an N-methyl-D-aspartate receptor modulator. Neuropharmacology. 49, 1077-87) The potentiation of [^3H]MK-801 binding (5 nM; 22.5 Ci/mmol) to well washed rat cortical membranes (200 μg) was measured under non-equilibrium conditions (15 min @25° C.) in the presence of increasing concentrations of test compounds and 50 μM glutamate. Zero levels were determined in the absence of any glycine ligand and in the presence of 30 μM 5.7 DCKA. Maximal stimulation was measured in the presence of 1 mM glycine, and 50 μM glutamate was present in all samples. The facilitation of [^3H]MK-801 binding by tests compounds was calculated by using a 3 parameter log agonist vs. response equation (Graph pad Prism, USA) and potency (EC50, expressed in pM) and maximal activity (% maximal stimulation) were calculated for the test compound.

LTP = LTP (long-term potentiation) augmentation; conditions: LTP Concentration 1 uM

EC50 [1]: 2.43 nM
SMILES: NC(=O)C(CO)N1CCCC12CNC2=O (centres unmarked) [Compound X]
LTP: LTP Augmentation (LTP): 75%
